Laboratory results reported in patent US8680094B2, “1, 4-benzoxazine compounds and derivatives thereof as therapeutic drugs for the treatment of neurodegenerative conditions” (Board of Regents, The University of Texas System, priority 2008, dated 2014).

Columns and labels:
Assay in all cases: In vitro kinase activity
Format in all cases: biochemical
ROCK1 = ROCK1 (Homo sapiens, UniProt Q13464); conditions: percentage of control assays without compound, mean of duplicate
Procedure: (§1) To better understand the mechanism of action of the compounds of the present invention, but in no way a limitation; the effects of HSB-13 and ASK-2a on 20 different kinases were examined in vitro. At 500 nM concentration, ASK-2a inhibited the kinase activities of GSK3α, GSK3β, p38α, p38β, JNK3, MLK3, and B-Raf substantially. […] As described above, ASK-2a protects cerebellar granule neurons against LK-induced death but is ineffective against HCA-induced toxicity of HT-22 cells. In contrast, HSB-13 is protective in both paradigms. […] Previous studies have established that CDK inhibitors can protect neurons against a number of different apoptotic stimuli.
(§2) The activity of each kinase was measured in vitro in the presence either 100 nM or 500 nM ASK-2a. Kinase activity is expressed as a percentage of that in control assays (without ASK-2a). The values are mean of assays performed in duplicate. Substantial inhibition of kinase activity (>20%) is in bold type.
(§3) Table 3: Effect of HSB-13 at 500 nM on 20 different kinases measured in vitro. Kinase activity is expressed as a percentage of that in control assays (without HSB-13). The values are mean of assays performed in duplicate. Substantial inhibition of kinase activity (>20%) is in bold type.

MLK3 = MLK3 (Homo sapiens, UniProt Q16584); conditions: 100 nM, percentage of control assays without compound, mean of duplicate
Chain of MLK3 (Q16584 whole entry, species assumed): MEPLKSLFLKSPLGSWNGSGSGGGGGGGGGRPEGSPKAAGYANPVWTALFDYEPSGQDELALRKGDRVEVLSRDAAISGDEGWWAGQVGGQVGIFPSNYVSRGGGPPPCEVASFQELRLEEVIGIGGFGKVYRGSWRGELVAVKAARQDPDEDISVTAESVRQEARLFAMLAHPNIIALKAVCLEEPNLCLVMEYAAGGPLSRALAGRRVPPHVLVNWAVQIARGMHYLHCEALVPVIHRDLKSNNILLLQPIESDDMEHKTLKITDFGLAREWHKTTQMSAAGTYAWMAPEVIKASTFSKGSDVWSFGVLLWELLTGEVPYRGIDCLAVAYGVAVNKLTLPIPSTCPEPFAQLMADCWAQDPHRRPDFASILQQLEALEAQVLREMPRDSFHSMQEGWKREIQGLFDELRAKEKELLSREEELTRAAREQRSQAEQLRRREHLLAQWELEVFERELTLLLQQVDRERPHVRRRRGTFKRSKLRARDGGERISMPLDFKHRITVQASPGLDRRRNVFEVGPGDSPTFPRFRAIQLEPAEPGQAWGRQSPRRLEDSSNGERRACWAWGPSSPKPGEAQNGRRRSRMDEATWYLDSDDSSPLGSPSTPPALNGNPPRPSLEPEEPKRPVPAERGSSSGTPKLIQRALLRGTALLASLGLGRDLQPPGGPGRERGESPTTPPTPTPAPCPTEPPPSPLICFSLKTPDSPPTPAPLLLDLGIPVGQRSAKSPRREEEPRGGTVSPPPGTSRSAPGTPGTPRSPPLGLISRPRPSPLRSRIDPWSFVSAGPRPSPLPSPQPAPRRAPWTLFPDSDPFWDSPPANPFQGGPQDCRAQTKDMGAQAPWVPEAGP
Procedure: as §1, §2, §3

p38α = p38α (Homo sapiens, UniProt Q16539); conditions: percentage of control assays without compound, mean of duplicate
Chain of p38α (Q16539 whole entry): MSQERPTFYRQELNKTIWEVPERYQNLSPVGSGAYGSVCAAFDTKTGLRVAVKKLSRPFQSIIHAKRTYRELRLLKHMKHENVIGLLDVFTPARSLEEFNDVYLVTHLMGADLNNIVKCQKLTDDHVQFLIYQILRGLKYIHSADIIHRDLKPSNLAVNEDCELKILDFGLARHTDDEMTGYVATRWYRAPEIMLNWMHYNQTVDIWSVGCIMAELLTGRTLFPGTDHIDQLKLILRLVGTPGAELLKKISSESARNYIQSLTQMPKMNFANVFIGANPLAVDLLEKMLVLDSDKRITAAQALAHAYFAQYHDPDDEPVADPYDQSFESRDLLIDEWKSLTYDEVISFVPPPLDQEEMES
Procedure: as §1, §2, §3

p38β = p38β (Homo sapiens, UniProt Q15759); conditions: percentage of control assays without compound, mean of duplicate
Procedure: as §1, §2, §3

JNK3 = JNK3 (Homo sapiens, UniProt P53779); conditions: percentage of control assays without compound, mean of duplicate
Procedure: as §1, §2, §3

CDK4/Cyclin D1 = CDK4/Cyclin D1 (Homo sapiens, UniProt P11802); conditions: percentage of control assays without compound, mean of duplicate
Chain of CDK4/Cyclin D1 (P11802 whole entry, species assumed): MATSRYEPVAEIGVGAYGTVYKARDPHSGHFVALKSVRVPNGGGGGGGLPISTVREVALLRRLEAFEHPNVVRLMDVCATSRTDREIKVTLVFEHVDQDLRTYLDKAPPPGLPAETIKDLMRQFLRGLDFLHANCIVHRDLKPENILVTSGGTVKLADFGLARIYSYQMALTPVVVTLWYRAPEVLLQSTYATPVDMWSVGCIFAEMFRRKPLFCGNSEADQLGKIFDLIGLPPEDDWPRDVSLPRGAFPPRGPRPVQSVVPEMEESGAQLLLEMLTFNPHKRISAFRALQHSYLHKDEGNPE
Chain of CDK4/Cyclin D1 (P24385 whole entry partner, species assumed): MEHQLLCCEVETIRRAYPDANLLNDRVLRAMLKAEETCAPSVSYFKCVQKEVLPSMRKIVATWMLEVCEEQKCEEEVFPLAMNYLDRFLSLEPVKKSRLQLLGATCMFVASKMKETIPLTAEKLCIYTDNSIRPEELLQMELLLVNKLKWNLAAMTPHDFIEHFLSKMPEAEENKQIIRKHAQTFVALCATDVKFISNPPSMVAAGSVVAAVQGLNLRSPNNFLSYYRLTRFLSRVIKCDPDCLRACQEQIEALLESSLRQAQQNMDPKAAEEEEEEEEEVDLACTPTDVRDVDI
Procedure: as §1, §2, §3

DAPK1 = DAPK1 (Homo sapiens, UniProt P53355); conditions: percentage of control assays without compound, mean of duplicate
Procedure: as §1, §2, §3

LRRK2 = LRRK2 (Homo sapiens, UniProt Q5S007); conditions: percentage of control assays without compound, mean of duplicate
Chain of LRRK2 (Q5S007 whole entry, species assumed): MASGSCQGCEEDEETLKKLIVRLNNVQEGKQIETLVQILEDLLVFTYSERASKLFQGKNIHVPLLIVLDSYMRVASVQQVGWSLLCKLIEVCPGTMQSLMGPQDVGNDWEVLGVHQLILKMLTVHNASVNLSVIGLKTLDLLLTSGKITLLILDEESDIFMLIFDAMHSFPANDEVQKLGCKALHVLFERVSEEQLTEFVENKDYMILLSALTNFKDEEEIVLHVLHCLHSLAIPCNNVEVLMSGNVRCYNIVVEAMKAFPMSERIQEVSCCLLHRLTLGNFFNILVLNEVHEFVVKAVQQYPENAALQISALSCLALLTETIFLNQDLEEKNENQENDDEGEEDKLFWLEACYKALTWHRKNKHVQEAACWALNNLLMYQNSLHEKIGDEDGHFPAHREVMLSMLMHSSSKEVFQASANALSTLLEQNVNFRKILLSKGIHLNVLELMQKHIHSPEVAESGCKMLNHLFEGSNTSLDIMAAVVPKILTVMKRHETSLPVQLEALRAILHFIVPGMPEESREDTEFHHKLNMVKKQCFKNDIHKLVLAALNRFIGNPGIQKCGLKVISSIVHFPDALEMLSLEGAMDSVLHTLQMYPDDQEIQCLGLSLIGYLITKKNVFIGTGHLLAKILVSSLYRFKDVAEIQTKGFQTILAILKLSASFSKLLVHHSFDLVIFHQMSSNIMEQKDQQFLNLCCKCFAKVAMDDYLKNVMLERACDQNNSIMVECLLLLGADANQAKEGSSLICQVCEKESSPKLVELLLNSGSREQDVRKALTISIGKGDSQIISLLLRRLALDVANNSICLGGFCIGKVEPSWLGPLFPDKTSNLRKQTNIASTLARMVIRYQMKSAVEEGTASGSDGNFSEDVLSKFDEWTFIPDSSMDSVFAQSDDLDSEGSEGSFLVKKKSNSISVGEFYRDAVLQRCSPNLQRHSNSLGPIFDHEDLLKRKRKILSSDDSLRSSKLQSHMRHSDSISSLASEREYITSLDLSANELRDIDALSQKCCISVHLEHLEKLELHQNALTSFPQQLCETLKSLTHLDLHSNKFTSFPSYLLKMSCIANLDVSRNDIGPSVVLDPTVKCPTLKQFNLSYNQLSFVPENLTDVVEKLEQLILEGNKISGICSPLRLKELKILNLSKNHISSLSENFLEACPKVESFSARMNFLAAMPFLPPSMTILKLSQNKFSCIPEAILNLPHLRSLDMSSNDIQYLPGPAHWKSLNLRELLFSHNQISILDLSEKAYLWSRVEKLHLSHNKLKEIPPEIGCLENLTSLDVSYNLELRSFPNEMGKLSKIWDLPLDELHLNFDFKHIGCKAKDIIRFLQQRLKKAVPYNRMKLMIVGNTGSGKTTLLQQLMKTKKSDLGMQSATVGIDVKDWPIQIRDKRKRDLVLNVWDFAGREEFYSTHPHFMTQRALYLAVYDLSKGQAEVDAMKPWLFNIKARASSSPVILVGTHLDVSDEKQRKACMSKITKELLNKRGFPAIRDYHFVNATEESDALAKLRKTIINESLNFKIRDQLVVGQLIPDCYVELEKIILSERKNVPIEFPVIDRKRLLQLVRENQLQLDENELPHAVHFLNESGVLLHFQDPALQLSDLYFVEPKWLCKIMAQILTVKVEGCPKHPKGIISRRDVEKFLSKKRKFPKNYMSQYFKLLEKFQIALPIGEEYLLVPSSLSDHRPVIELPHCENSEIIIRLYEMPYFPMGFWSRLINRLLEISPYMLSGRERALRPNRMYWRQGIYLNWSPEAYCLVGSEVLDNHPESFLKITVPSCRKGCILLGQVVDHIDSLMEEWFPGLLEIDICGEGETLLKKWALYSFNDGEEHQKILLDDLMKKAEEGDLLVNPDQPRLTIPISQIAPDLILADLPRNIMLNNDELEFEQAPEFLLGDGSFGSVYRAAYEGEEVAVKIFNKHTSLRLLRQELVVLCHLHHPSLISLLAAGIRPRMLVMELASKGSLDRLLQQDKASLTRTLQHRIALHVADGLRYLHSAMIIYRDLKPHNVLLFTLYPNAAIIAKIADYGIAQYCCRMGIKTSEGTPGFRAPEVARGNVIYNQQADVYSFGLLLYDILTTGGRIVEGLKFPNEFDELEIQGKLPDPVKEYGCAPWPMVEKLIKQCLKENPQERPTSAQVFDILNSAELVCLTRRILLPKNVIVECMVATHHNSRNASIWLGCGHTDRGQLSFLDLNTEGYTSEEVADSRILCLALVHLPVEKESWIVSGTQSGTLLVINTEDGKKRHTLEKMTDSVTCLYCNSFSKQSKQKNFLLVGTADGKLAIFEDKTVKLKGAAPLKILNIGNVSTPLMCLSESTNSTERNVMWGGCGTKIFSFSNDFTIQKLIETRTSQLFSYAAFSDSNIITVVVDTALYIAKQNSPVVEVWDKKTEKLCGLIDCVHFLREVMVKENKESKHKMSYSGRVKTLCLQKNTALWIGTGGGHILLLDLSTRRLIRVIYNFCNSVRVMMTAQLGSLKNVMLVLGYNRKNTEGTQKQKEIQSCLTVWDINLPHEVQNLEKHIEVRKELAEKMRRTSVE
Procedure: as §1, §2, §3

GSK3α = GSK3α (Homo sapiens, UniProt P49840); conditions: percentage of control assays without compound, mean of duplicate
Chain of GSK3α (P49840 whole entry, species assumed): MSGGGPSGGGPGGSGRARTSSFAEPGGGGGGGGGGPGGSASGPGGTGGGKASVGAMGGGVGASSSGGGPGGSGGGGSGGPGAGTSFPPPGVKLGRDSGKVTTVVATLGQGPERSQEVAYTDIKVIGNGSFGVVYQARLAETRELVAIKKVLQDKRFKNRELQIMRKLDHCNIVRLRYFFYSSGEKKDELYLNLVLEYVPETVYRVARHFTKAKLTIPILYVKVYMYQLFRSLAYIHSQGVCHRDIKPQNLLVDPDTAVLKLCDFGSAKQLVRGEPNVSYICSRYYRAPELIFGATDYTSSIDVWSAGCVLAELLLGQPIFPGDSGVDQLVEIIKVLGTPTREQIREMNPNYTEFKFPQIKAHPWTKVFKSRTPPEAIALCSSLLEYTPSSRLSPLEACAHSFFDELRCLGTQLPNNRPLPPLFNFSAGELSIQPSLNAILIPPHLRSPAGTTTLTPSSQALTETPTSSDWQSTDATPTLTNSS
Procedure: as §1, §2, §3

ASK1 = target: T1, ASK1 (Homo sapiens, UniProt Q99683); conditions: percentage of control assays without compound, mean of duplicate
T1 sequence (Q99683 1-1374): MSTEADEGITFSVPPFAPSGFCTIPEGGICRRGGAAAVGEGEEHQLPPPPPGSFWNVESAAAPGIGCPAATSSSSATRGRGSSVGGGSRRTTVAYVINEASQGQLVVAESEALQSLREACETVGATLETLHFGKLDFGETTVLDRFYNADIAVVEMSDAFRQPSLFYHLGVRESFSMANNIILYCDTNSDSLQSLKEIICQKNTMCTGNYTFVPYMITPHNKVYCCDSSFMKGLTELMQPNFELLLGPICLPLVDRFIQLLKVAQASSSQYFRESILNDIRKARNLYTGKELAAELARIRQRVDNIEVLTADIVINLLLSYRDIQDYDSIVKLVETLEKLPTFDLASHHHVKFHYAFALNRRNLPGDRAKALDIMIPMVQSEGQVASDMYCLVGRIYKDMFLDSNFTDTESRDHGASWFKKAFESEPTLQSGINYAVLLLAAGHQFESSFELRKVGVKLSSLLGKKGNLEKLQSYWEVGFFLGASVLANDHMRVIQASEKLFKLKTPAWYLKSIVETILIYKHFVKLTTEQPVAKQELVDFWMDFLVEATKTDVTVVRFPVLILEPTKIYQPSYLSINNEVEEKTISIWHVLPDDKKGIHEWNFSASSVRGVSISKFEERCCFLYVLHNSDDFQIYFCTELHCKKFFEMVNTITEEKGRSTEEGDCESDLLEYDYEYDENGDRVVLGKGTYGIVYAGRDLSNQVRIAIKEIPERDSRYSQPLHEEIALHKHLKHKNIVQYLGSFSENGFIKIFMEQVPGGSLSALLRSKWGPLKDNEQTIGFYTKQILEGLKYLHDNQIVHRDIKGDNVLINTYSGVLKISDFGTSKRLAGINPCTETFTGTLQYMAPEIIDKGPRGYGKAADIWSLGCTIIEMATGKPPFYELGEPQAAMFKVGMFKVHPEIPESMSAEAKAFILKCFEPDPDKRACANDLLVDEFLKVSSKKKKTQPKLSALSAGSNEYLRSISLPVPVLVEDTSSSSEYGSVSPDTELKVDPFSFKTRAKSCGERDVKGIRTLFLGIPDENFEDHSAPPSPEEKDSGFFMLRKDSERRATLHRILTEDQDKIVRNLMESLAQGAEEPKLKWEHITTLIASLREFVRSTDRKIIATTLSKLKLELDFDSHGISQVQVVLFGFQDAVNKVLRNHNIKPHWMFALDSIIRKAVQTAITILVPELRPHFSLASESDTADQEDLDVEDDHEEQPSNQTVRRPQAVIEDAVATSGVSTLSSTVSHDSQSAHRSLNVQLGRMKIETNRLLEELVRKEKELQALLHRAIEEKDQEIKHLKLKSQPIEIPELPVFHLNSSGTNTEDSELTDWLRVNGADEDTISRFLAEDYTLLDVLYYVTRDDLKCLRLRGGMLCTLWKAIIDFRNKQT
Procedure: as §1, §2, §3

CDK2/Cyclin A1 = CDK2/Cyclin A1 (Homo sapiens, UniProt P24941); conditions: percentage of control assays without compound, mean of duplicate
Procedure: as §1, §2, §3

CDK6/Cyclin D3 = CDK6/Cyclin D3 (Homo sapiens, UniProt Q00534); conditions: percentage of control assays without compound, mean of duplicate
Procedure: as §1, §2, §3

CDK1/Cyclin B1 = CDK1/Cyclin B1 (Homo sapiens, UniProt P06493); conditions: percentage of control assays without compound, mean of duplicate
Procedure: as §1, §2, §3

GSK3β = GSK3β (Homo sapiens, UniProt P49841); conditions: percentage of control assays without compound, mean of duplicate
Procedure: as §1, §2, §3

CDK5/p25 = CDK5/p25 (Homo sapiens, UniProt Q00535); conditions: percentage of control assays without compound, mean of duplicate
Procedure: as §1, §2, §3

[1] = 100 nM, listed as ASK2a, 0.1 µM

| SMILES | % ACTIVITY (ROCK1; 100 nM) [%] | % ACTIVITY (CDK4/Cyclin D1; 100 nM) [%] | % ACTIVITY (CDK4/Cyclin D1; 500 nM) [%] | % ACTIVITY (DAPK1; 100 nM) [%] | % ACTIVITY (DAPK1; 500 nM) [%] | % ACTIVITY (LRRK2; 100 nM) [%] | % ACTIVITY (LRRK2; 500 nM) [%] | % ACTIVITY (ASK1; 100 nM) [%] | % ACTIVITY (ASK1; 500 nM) [%] | % ACTIVITY (CDK2/Cyclin A1; 100 nM) [%] | % ACTIVITY (CDK6/Cyclin D3; 100 nM) [%] | % ACTIVITY (CDK6/Cyclin D3; 500 nM) [%] | % ACTIVITY (CDK1/Cyclin B1; 100 nM) [%] | % ACTIVITY (CDK5/p25; 100 nM) [%] | further results |
| --- | --- | --- | --- | --- | --- | --- | --- | --- | --- | --- | --- | --- | --- | --- | --- |
| O=C1Nc2ccccc2OC1=Cc1cc(Br)c(O)c(Br)c1 [ASK-2a] | 96 | 93 | 97 | 98 | 95 | 96 | 94 | 104 | 97 | 104 | 104 | 99 | 91 | 100 | % ACTIVITY (ROCK1; 500 nM): 98%; % ACTIVITY (MLK3; 0.1 µM): 88%; % ACTIVITY (MLK3; listed as ASK2a, 0.1 µM): inhibited less efficiently; % ACTIVITY (p38α; 100 nM, 0.1 µM): 76%; % ACTIVITY (p38α; [1]): inhibited efficiently; % ACTIVITY (p38β; 100 nM, 0.1 µM): 33%; % ACTIVITY (p38β; [1]): inhibited efficiently; % ACTIVITY (JNK3; 100 nM, 0.1 µM): 94%; % ACTIVITY (JNK3; [1]): inhibited efficiently; % ACTIVITY (GSK3α; 100 nM, 0.1 µM): 71%; % ACTIVITY (GSK3α; [1]): inhibited efficiently; % ACTIVITY (CDK2/Cyclin A1; 500 nM): 100%; % ACTIVITY (CDK1/Cyclin B1; 500 nM): 98%; % ACTIVITY (GSK3β; 100 nM, 0.1 µM): 55%; % ACTIVITY (GSK3β; [1]): inhibited efficiently; % ACTIVITY (CDK5/p25; 500 nM): 96% |
| Nc1ccc2c(c1)NC(=O)/C(=C/c1cc(Br)c(O)c(Br)c1)O2 [HSB-13, (Z)-6-amino-2-(3,′5′-dibromo-4′-hydrozybenzylidene)-2H-benzo[b][1,4]oxazin-3(4H)-one] | 91 | 103 | 88 | 96 | 84 | 97 | 88 | 104 | 95 | 82 | 99 | 89 | 90 | 84 | % ACTIVITY (MLK3): 94%; % ACTIVITY (p38α; 100 nM): 88%; % ACTIVITY (p38α; 500 nM): 43%; % ACTIVITY (p38β; 500 nM): 10%; % ACTIVITY (JNK3; 100 nM): 92%; % ACTIVITY (JNK3; 500 nM): 92%; % ACTIVITY (GSK3α; 500 nM): 23%; % ACTIVITY (GSK3β; 500 nM): 19% |
